Measurements published in publication PMC9102431, “Natural Compound Shikonin Is a Novel PAK1 Inhibitor and Enhances Efficacy of Chemotherapy against Pancreatic Cancer Cells” (Molecules, 2022).

Biological target: PAK1 (Homo sapiens, UniProt Q13153)
Assay: ADP-Glo kinase assay with human recombinant PAK1 (also labchip-based screen)
Type: biochemical

PAK1, sequence (Q13153 2-545): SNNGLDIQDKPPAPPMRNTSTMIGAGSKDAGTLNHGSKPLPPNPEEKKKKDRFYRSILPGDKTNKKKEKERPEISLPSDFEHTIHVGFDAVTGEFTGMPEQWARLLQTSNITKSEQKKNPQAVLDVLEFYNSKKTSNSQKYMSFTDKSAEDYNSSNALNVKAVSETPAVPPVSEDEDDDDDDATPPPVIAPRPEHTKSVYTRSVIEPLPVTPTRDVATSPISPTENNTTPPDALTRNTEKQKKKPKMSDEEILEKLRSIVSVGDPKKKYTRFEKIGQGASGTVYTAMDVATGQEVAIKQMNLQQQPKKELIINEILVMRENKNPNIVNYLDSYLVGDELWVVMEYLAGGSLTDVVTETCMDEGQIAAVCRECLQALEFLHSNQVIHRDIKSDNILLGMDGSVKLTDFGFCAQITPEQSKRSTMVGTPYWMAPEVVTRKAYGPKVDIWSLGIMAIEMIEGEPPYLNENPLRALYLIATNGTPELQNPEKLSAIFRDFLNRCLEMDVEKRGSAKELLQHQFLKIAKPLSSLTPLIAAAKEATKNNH

With `CC(C)=CC[C@@H](O)C1=CC(=O)c2c(O)ccc(O)c2C1=O` [shikonin] the IC50 was 7.252 ± 0.054 µM.
